Experimental data as given in patent US20040127501A1, “Therapeutic agents useful for treating pain” (priority 2002, published 2004).

Target: T1, mGluR5 (Rattus norvegicus, UniProt P31424)
T1 construct: The procedure allows the expression of the mGluR5 receptor by astrocytes; endogenous in cells; host or cells: secondary astrocyte cultures from embryonic (E18) Sprague-Dawley cortex, EGF-treated
Experiment: mGluR5 calcium mobilization flux assay in primary astrocytes (Fluo-4, Fluorometric Imaging Plate reader)
Assay type: cell-based, rat (Sprague-Dawley)
Details: astrocytes expressing mGluR5; calcium mobilization flux with glutamate (final 10 mM); mean of 5 experiments
Procedure: Cell cultures: Primary glial cultures were prepared from cortices of Sprague-Dawley 18 days old embryos. The cortices were dissected and then dissociated by trituration. The resulting cell homogenate was plated onto poly-D-lysine precoated T175 flasks (BIOCOAT, commercially available from Becton Dickinson and Company Inc. of Franklin Lakes, N.J.) in Dulbecco's Modified Eagle's Medium (“DMEM,” pH 7.4), buffered with 25 mM HEPES, and supplemented with 15% fetal calf serum (“FCS,” commercially available from Hyclone Laboratories Inc. of Omaha, Nebr.), and incubated at 37° C. and 5% CO2. After 24 hours, FCS supplementation was reduced to 10%. […]
Assay Protocol: After 3-5 days incubation with EGF, the astrocytes were washed with 127 mM NaCl, 5 mM KCl, 2 mM MgCl2, […] NaH2PO4, 2 mM CaCl2, 5 mM NaHCO3, 8 mM HEPES, 10 mM Glucose at pH 7.4 (“Assay Buffer”) and loaded with the dye Fluo-4 (commercially available from Molecular Probes Inc. of Eugene, Oreg.) using 0.1 mL of Assay Buffer containing Fluo-4 ([…]). […] The plates containing the astrocytes were then transferred to a Fluorometric Imaging Plate reader (commercially available from Molecular Devices Corporation of Sunnyvale, Calif.) for the assessment of calcium mobilization flux in the presence of glutamate and in the presence or absence of antagonist. […] In each experiment each data point was determined two times.

T1 sequence (P31424 21-1203): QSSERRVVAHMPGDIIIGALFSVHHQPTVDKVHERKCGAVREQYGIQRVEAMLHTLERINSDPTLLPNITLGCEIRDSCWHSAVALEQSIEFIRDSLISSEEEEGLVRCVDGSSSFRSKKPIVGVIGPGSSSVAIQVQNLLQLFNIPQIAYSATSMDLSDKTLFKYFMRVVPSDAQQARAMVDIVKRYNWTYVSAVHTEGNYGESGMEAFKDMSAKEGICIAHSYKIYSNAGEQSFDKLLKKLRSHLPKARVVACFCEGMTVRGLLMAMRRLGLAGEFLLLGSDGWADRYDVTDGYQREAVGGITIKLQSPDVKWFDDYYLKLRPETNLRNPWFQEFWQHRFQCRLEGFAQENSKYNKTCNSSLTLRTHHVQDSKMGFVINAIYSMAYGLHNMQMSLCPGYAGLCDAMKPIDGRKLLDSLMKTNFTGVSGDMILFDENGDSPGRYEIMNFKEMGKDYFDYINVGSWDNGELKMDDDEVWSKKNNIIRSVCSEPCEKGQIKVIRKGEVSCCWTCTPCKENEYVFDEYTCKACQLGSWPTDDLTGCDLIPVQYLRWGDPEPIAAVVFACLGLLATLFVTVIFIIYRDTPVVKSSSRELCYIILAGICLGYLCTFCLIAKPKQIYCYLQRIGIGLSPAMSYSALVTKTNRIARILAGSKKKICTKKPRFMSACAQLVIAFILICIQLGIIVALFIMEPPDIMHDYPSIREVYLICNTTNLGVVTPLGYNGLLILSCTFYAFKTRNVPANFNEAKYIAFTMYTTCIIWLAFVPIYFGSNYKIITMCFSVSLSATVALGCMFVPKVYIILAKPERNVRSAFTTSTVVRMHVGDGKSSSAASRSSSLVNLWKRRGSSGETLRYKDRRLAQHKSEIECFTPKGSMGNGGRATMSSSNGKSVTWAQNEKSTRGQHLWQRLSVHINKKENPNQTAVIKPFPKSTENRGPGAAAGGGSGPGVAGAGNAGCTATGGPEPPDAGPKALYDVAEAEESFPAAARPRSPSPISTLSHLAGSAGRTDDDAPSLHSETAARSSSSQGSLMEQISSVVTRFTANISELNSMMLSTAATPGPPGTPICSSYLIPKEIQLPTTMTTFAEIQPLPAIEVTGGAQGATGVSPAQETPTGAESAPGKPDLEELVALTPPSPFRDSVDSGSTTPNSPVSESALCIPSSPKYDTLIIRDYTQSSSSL

IC50: 555 ± 137 nM
Structure (SMILES): O=C(C#Cc1ccccc1)N1CCN(c2ncccn2)CC1 [Compound AAA(IIa)]
